≈ marks a conversion by molar mass, not a printed value.
Tests used:
Assay type in all cases: cell-based
A. baumannii SR27323 = assay: MIC, CLSI broth microdilution, cation-adjusted Mueller Hinton broth with human apo-transferrin (Test Example 1); details: inoculum 5×10^5 cfu/mL; for MIC: Acinetobacter baumannii, SR27323, Table 2, OXA-23, OXA-58 carbapenemase producing strain, read-out: Minimum Inhibitory Concentration (MIC) A. baumannii SR27323; for Minimum Inhibitory Concentration (MIC) A. baumannii SR27323: Table 2, OXA-23, OXA-58 carbapenemase producing strain
Method: (§1) Measurement of Minimum Inhibitory Concentration (MIC: μg/mL) was conducted according to CLSI (Clinical and Laboratory Standards Institute) method, and the amount of bacteria for inoculation was 5×10^5 cfu/mL, and cation-adjusted Mueller Hinton broth containing human apo-transferrin was used as a test medium, and the experiment was conducted using broth microdilution method. The bacteria used are listed below.

E. coli ATCCBAA-199 = assay: as above; details: inoculum 5×10^5 cfu/mL; for MIC: Escherichia coli, ATCCBAA199, Table 2, SHV-3 ESBL producing strain, read-out: Minimum Inhibitory Concentration (MIC) E. coli ATCC BAA-199
Method: as §1

E. coli ATCCBAA-200 [1] = assay: as above; details: inoculum 5×10^5 cfu/mL; for MIC: Escherichia coli, ATCCBAA200, Table 2, SHV-4 ESBL producing strain, read-out: Minimum Inhibitory Concentration (MIC) E. coli ATCC BAA-200
Method: as §1

[2] = system: K. pneumoniae ATCCBAA-1705; assay: as above; details: inoculum 5×10^5 cfu/mL; for MIC: Klebsiella pneumoniae, ATCCBAA1705, Table 2, KPC-2 carbapenemase producing strain, read-out: Minimum Inhibitory Concentration (MIC) K. pneumoniae ATCC BAA-1705
Method: as §1

P. aeruginosa SR24 = assay: as above; details: no enzyme, inoculum 5×10^5 cfu/mL; for MIC: Pseudomonas aeruginosa, SR24, Table 2, ceftazidime resistance strain, read-out: Minimum Inhibitory Concentration (MIC) P. aeruginosa SR24; for Minimum Inhibitory Concentration (MIC) P. aeruginosa SR24: Table 2, ceftazidime resistance strain
Method: as §1

P. aeruginosa SR27060 = assay: as above; details: inoculum 5×10^5 cfu/mL; for MIC: Pseudomonas aeruginosa, SR27060, Table 2, IMP-1 MBL producing strain (carbapenem resistance strain), read-out: Minimum Inhibitory Concentration (MIC) P. aeruginosa SR27060
Method: as §1

E. cloacae NCTC13464 = assay: MIC, CLSI broth microdilution, cation-adjusted iso-sensitest broth with human apo transferrin (Test Example 2); details: Enterobacter cloacae, Table 5, CTX-M group 9 ESBL producing strain, inoculum 5×10^5 cfu/mL, read-out: Minimum Inhibitory Concentration (MIC) E. cloacae NCTC 13464
Method: as §1, with “iso-sensitest” for “Mueller Hinton”, “apo transferrin” for “apo-transferrin”

E. coli ATCCBAA-196 = assay: as above; details: Escherichia coli, ATCCBAA196, Table 5, TEM-10 ESBL producing strain, inoculum 5×10^5 cfu/mL, read-out: Minimum Inhibitory Concentration (MIC) E. coli ATCC BAA-196
Method: as §1, with “iso-sensitest” for “Mueller Hinton”, “apo transferrin” for “apo-transferrin”

E. coli ATCCBAA-200 [3] = assay: as above; details: Escherichia coli, ATCCBAA200, Table 5, SHV-4 ESBL producing strain, inoculum 5×10^5 cfu/mL, read-out: Minimum Inhibitory Concentration (MIC) E. coli ATCC BAA-200
Method: as §1, with “iso-sensitest” for “Mueller Hinton”, “apo transferrin” for “apo-transferrin”

Row | SMILES | MIC (A. baumannii SR27323) | MIC (E. coli ATCCBAA-199) | MIC (E. coli ATCCBAA-200 [1]) | MIC [2] | MIC (P. aeruginosa SR24) | MIC (P. aeruginosa SR27060) | Minimum Inhibitory Concentration (MIC) A. baumannii SR27323 (A. baumannii SR27323) | Minimum Inhibitory Concentration (MIC) E. coli ATCC BAA-199 (E. coli ATCCBAA-199; Table 2, SHV-3 ESBL producing strain) | Minimum Inhibitory Concentration (MIC) E. coli ATCC BAA-200 (E. coli ATCCBAA-200 [1]; Table 2, SHV-4 ESBL producing strain) | Minimum Inhibitory Concentration (MIC) K. pneumoniae ATCC BAA-1705 ([2]; Table 2, KPC-2 carbapenemase producing strain) | Minimum Inhibitory Concentration (MIC) P. aeruginosa SR24 (P. aeruginosa SR24) | Minimum Inhibitory Concentration (MIC) P. aeruginosa SR27060 (P. aeruginosa SR27060; Table 2, IMP-1 MBL producing strain (carbapenem resistance strain)) | MIC (E. cloacae NCTC13464) | MIC (E. coli ATCCBAA-196) | MIC (E. coli ATCCBAA-200 [3])
1 | CC(C)(O/N=C(\C(=O)N[C@@H]1C(=O)N2C(C(=O)[O-])=C(CSc3cc[n+](CC(=O)c4ccc(O)c(O)c4)cc3)CS[C@H]12)c1csc(N)n1)C(=O)O [Comparative Compound 1, reference compound] | 0.5 µg/mL (≈ 0.686 µM) | 1 µg/mL (≈ 1.37 µM) | 2 µg/mL (≈ 2.74 µM) | 0.25 µg/mL (≈ 0.343 µM) | 0.25 µg/mL (≈ 0.343 µM) | > 32 µg/mL | – | – | – | – | – | – | – | – | –
2 | CC(C)(O/N=C(\C(=O)N[C@@H]1C(=O)N2C(c3nnn[n-]3)=C(CSc3cc[n+](Cc4ccc(O)c(O)c4)cc3)CS[C@H]12)c1csc(N)n1)C(=O)O [Compound I-1] | – | – | – | – | – | – | 1 µg/mL | ≦0.031 μg/ml | ≦0.031 μg/ml | ≦0.031 μg/ml | 0.25 µg/mL | 1. μg/ml | – | – | –
3 | CC(C)(O/N=C(\C(=O)N[C@@H]1C(=O)N2C(c3nnn[n-]3)=C(CSc3cc[n+](Cc4ccc(O)c(O)c4)cc3)CS[C@H]12)c1csc(N)n1)C(=O)O [Compound I-2] | – | ≤ 0.031 µg/mL | ≤ 0.031 µg/mL | ≤ 0.031 µg/mL | – | 0.5 µg/mL (≈ 0.69 µM) | ≦0.031 μg/ml | – | – | – | 0.063 µg/mL | – | – | – | –
4 | CC(C)(O/N=C(\C(=O)N[C@@H]1C(=O)N2C(c3nnn[n-]3)=C(CSc3cc[n+](CC(=O)c4ccc(O)c(O)c4)cc3)CS[C@H]12)c1nsc(N)n1)C(=O)O [Compound I-4] | 1 µg/mL (≈ 1.33 µM) | 0.125 µg/mL (≈ 0.166 µM) | 0.25 µg/mL (≈ 0.332 µM) | ≤ 0.031 µg/mL | 0.125 µg/mL (≈ 0.166 µM) | 2 µg/mL (≈ 2.65 µM) | – | – | – | – | – | – | – | – | –
5 | C[C@H](O/N=C(\C(=O)N[C@@H]1C(=O)N2C(c3nnn[n-]3)=C(CSc3cc[n+](CC(=O)c4ccc(O)c(O)c4)cc3)CS[C@H]12)c1nc(N)sc1Cl)C(=O)O [Compound I-5] | 0.5 µg/mL (≈ 0.647 µM) | ≤ 0.031 µg/mL | 0.063 µg/mL (≈ 0.0815 µM) | ≤ 0.031 µg/mL | 0.125 µg/mL (≈ 0.162 µM) | 1 µg/mL (≈ 1.29 µM) | – | – | – | – | – | – | – | – | –
6 | CC(C)(O/N=C(\C(=O)N[C@@H]1C(=O)N2C(c3nnn[n-]3)=C(CSc3cc[n+](-c4ccc(O)c(O)c4)cc3)CS[C@H]12)c1csc(N)n1)C(=O)O [Compound I-6] | 0.125 µg/mL (≈ 0.176 µM) | ≤ 0.031 µg/mL | ≤ 0.031 µg/mL | ≤ 0.031 µg/mL | 0.063 µg/mL (≈ 0.0886 µM) | – | – | – | – | – | – | – | – | – | –
7 | CC(C)(O/N=C(\C(=O)N[C@@H]1C(=O)N2C(c3nnn[n-]3)=C(CSc3cc[n+](CC(=O)c4ccc(O)c(O)c4)cc3)C[S+]([O-])[C@H]12)c1csc(N)n1)C(=O)O (some centres unmarked) [Compound I-7] | 2 µg/mL (≈ 2.6 µM) | ≤ 0.031 µg/mL | ≤ 0.031 µg/mL | ≤ 0.031 µg/mL | 0.5 µg/mL (≈ 0.65 µM) | 4 µg/mL (≈ 5.2 µM) | – | – | – | – | – | – | – | – | –
8 | C[C@H](O/N=C(\C(=O)N[C@@H]1C(=O)N2C(c3nnn[n-]3)=C(CSc3cc[n+](CC(=O)c4ccc(O)c(O)c4)cc3)CO[C@H]12)c1nc(N)sc1Cl)C(=O)O [Compound I-8] | 2 µg/mL (≈ 2.64 µM) | 0.063 µg/mL (≈ 0.0832 µM) | 0.25 µg/mL (≈ 0.33 µM) | ≤ 0.031 µg/mL | 0.25 µg/mL (≈ 0.33 µM) | 16 µg/mL (≈ 21.1 µM) | – | – | – | – | – | – | – | – | –
9 | CC(C)(O/N=C(\C(=O)N[C@@H]1C(=O)N2C(c3nnn[n-]3)=C(CSc3cc[n+](CC(=O)c4ccc(O)c(O)c4Cl)cc3)CS[C@H]12)c1nc(N)sc1Cl)C(=O)[O-].[Na+] [Compound I-15] | – | – | – | – | – | – | – | – | – | – | – | – | 0.125 µg/mL | ≤ 0.031 µg/mL | ≤ 0.031 µg/mL
10 | CC(C)(O/N=C(\C(=O)N[C@@H]1C(=O)N2C(c3nnn[n-]3)=C(CSc3cc[n+](-c4ccc(O)c(O)c4Cl)cc3)CS[C@H]12)c1nsc(N)n1)C(=O)[O-].[Na+] [Compound I-17] | – | – | – | – | – | – | – | – | – | – | – | – | 0.063 µg/mL | 0.125 µg/mL | 0.125 µg/mL
